Data as given in patent publication US20250177363A1, “SUBSTITUTED IMIDAZOPYRIDINYL COMPOUNDS USEFUL AS INHIBITORS OF TLR9” (Bristol-Myers Squibb Company, priority 2022, published 2025).

How the values were obtained:
Type in all cases: cell-based
human TLR8 = target: T1, human TLR8 (Homo sapiens, UniProt Q9NR97); experiment: TLR8 inhibition reporter assay (HEK-Blue, SEAP); settings: HEK-Blue cells overexpressing human TLR8, ligand R848 14.25 μM, 22 hour incubation
T1 construct: host or cells: HEK-Blue cells
T1 sequence (Q9NR97 27-1041): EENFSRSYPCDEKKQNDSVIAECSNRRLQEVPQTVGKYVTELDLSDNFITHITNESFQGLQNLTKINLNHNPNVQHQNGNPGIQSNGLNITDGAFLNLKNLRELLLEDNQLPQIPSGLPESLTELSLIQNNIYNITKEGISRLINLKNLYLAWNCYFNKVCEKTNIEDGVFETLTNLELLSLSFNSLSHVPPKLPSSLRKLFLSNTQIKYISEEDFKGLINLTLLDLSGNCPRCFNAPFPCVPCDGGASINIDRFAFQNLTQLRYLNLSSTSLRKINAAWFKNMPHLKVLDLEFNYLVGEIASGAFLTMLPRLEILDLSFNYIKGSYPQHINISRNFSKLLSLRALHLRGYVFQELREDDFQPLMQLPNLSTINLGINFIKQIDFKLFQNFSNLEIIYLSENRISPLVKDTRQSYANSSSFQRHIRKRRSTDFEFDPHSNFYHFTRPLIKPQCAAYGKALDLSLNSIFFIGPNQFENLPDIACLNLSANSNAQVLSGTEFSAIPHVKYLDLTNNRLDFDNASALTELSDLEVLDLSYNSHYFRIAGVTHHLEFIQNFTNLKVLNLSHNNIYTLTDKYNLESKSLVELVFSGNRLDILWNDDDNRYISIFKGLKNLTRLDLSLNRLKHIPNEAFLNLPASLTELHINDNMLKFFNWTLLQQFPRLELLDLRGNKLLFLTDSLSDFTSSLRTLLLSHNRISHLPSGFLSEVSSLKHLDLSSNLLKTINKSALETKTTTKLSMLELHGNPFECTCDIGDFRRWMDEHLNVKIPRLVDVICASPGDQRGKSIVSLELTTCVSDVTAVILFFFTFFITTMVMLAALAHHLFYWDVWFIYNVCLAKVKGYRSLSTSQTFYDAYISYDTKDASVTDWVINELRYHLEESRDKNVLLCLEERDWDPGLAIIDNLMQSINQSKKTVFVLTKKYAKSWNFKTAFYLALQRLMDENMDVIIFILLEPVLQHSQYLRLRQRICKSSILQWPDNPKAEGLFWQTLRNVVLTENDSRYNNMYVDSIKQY
How it was run: (§1)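 HEK-Blue cells expressing human TLR7, TLR8 or TLR9 with NF-κB/AP-1-driven SEAP reporter; compounds 0.85 nM–50 μM, pre-treated 60 min. Stimulation: gardiquimod 2.5 μM (TLR7), R848 14.25 μM (TLR8), ODN2006 200 nM (TLR9); SEAP read after 22 h at 37 °C. Percent inhibition normalized between agonist+DMSO and known-inhibitor wells.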

human TLR9 = target: T2, human TLR9 (Homo sapiens, UniProt Q9NR96); experiment: TLR9 inhibition reporter assay (HEK-Blue, SEAP); settings: HEK-Blue cells overexpressing human TLR9, ligand ODN2006 200 nM, 22 hour incubation
T2 construct: host or cells: HEK-Blue cells
T2 sequence (Q9NR96 26-1032): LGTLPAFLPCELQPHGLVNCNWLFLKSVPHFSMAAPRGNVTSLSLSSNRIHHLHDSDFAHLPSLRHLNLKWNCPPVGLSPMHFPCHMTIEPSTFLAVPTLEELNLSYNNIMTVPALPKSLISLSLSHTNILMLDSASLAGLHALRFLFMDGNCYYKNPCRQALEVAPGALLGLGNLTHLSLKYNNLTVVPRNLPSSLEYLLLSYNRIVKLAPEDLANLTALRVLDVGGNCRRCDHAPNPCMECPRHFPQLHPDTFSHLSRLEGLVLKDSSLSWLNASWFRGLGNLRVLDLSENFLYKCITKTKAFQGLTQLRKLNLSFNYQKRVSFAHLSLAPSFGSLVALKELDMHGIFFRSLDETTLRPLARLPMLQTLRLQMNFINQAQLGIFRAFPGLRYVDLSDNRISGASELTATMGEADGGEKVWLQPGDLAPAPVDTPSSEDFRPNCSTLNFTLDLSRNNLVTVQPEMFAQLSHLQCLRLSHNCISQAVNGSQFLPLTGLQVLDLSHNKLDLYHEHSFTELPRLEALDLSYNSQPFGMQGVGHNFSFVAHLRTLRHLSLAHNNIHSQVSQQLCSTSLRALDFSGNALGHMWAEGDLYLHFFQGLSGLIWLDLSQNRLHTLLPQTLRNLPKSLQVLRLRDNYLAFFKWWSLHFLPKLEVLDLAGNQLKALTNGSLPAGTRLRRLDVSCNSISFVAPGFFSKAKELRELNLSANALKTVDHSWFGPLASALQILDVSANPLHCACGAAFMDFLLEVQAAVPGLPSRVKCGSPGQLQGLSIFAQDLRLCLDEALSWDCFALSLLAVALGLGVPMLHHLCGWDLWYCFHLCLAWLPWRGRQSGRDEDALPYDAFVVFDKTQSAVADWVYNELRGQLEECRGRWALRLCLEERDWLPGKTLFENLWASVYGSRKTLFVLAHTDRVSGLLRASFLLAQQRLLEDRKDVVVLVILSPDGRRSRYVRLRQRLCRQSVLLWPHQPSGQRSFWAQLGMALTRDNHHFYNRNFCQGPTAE
How it was run: as §1

human TLR7 = target: T3, human TLR7 (Homo sapiens, UniProt Q9NYK1); experiment: TLR7 inhibition reporter assay (HEK-Blue, SEAP); settings: HEK-Blue cells overexpressing human TLR7, ligand gardiquimod 2.5 μM, 22 hour incubation
T3 construct: host or cells: HEK-Blue cells
T3 sequence (Q9NYK1 27-1049): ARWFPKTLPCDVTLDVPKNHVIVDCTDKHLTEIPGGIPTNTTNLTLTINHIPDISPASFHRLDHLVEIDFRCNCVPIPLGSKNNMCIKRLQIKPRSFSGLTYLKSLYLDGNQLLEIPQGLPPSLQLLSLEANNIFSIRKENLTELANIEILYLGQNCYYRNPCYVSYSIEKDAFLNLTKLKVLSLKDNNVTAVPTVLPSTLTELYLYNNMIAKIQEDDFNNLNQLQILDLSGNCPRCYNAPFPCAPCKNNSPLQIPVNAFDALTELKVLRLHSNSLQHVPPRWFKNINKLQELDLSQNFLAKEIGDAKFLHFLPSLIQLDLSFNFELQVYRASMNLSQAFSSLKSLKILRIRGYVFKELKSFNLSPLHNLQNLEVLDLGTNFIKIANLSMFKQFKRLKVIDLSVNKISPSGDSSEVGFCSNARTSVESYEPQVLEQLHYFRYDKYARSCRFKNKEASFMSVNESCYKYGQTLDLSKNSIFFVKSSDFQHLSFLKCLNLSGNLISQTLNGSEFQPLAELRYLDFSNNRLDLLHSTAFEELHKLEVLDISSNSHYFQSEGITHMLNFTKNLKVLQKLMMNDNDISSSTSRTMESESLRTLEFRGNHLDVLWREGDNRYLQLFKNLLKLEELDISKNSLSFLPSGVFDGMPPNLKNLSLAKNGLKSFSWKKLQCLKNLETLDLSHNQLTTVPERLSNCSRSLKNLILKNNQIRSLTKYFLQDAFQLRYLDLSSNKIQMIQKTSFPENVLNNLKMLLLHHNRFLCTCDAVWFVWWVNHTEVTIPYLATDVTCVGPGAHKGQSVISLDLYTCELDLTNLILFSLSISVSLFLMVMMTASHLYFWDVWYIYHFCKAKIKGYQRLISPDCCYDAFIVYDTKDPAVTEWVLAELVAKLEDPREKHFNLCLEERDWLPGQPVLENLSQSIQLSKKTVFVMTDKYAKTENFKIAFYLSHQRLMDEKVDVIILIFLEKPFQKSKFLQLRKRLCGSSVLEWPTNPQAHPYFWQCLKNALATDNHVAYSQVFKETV
How it was run: as §1

## Cc1cc(C2CCN(C3CC4CCC(C3)N4CC3CC3)CC2)nc2c1nc(-c1ccc(S(C)(=O)=O)cc1)n2C (single isomer, unassigned) [Example 30, 5-(1-(8-(cyclopropylmethyl)-8-azabicyclo[3.2.1]octan-3-yl)piperidin-4-yl)-3,7-dimethyl-2-(4-(methylsulfonyl)phenyl)-3H-imidazo[4,5-b]pyridine]
Human TLR8
  IC50: > 50000 nM
Human TLR9
  IC50: 60 nM
Human TLR7
  IC50: 2900 nM

## CC(C)CN1CCC(N2CCC(c3ccc4nc(-c5ccc(S(C)(=O)=O)cc5)n(C)c4n3)CC2)CC1 [Example 18, 5-(1′-isobutyl-[1,4′-bipiperidin]-4-yl)-3-methyl-2-(4-(methylsulfonyl)phenyl)-3H-imidazo[4,5-b]pyridine]
Human TLR8
  IC50: > 25000 nM
Human TLR9
  IC50: 780 nM
Human TLR7
  IC50: 2800 nM

## Cc1cc(C2CCN(C3CC4CCC(C3)N4C3CCOCC3)CC2)nc2c1nc(-c1ccc(S(C)(=O)=O)cc1)n2C (single isomer, unassigned) [Example 34, 3,7-dimethyl-2-(4-(methylsulfonyl)phenyl)-5-(1-(8-(tetrahydro-2H-pyran-4-yl)-8-azabicyclo[3.2.1]octan-3-yl)piperidin-4-yl)-3H-imidazo[4,5-b]pyridine]
Human TLR8
  IC50: > 50000 nM
Human TLR9
  IC50: 37 nM
Human TLR7
  IC50: 5700 nM

## Cn1c(-c2ccc(S(C)(=O)=O)cc2)nc2ncc(C3CCN(C4CCN(C5CC5)CC4)CC3)cc21 [Example 16, 6-(1′-cyclopropyl-[1,4′-bipiperidin]-4-yl)-1-methyl-2-(4-(methylsulfonyl)phenyl)-1H-imidazo[4,5-b]pyridine]
Human TLR8
  IC50: > 25000 nM
Human TLR9
  IC50: 1400 nM
Human TLR7
  IC50: > 25000 nM

## COc1ccc(-c2nc3ccc(-c4ccc(N5CCN(C(C)C)CC5)cc4)nc3n2C2CC2)cc1OC [Example 55, 3-cyclopropyl-2-(3,4-dimethoxyphenyl)-5-(4-(4-isopropylpiperazin-1-yl)phenyl)-3H-imidazo[4,5-b]pyridine]
Human TLR8
  IC50: > 50000 nM
Human TLR9
  IC50: 1400 nM
Human TLR7
  IC50: 40000 nM

## Cn1c(-c2ccc(S(C)(=O)=O)cc2)nc2ccc(C3CCN(C4CCN(C5CC5)CC4)CC3)nc21 [Example 19, 5-(1′-cyclopropyl-[1,4′-bipiperidin]-4-yl)-3-methyl-2-(4-(methylsulfonyl)phenyl)-3H-imidazo[4,5-b]pyridine]
Human TLR8
  IC50: > 25000 nM
Human TLR9
  IC50: 870 nM
Human TLR7
  IC50: 18000 nM

## Cc1cc(C2CCN(C3CCN(CC(C)C)CC3)CC2)nc2c1nc(-c1ccc(S(C)(=O)=O)cc1)n2C [Example 21, 5-(1′-isobutyl-[1,4′-bipiperidin]-4-yl)-3,7-dimethyl-2-(4-(methylsulfonyl)phenyl)-3H-imidazo[4,5-b]pyridine]
Human TLR8
  IC50: > 50000 nM
Human TLR9
  IC50: 24 nM
Human TLR7
  IC50: 4400 nM
